Peptide text beside a SMILES is read from it. * marks the point of attachment. Palmitoyl = CCCCCCCCCCCCCCCC(=O)*
Experiments:
A549 xenografts = assay type: in vivo, mouse
Procedure: (§1) FIG. 13 illustrates that monotherapy with PAR1-i3 pepducins inhibits tumor progression of A549 xenografts. (A) and (B): A549 mice treated with vehicle, P1pal-7, P1pal-i1-11, P1pal-10S, X1/2-i1, X1/2-i3, or Avastin. Each time point represents the mean±SE. (C): Final tumor volume at the completion of the experiment was calculated as a percentage of untreated vehicle control. (D): Serum-starved A549 adenocarcinoma cells were pretreated with P1pal-7, P1pal-10S, P1pal-i1-11, vehicle, or PD98059 and stimulated with thrombin. VEGF production was assessed by enzyme-linked immunosorbent assay. Data are expressed as mean±SD (*P<0.05, **P<0.01).
PAR1 expression level is correlated with reduced survival of patients with NSCLC. To define the relative importance of PAR1 in lung tumor progression, in vivo mouse models were used. […] An A549 lung adenocarcinoma xenograft model in nude mice was used to evaluate monotherapy with P1pal-7, P1pal-10S, P1pal-i1-11, or the VEGF antagonist Avastin.

VEGF-A production = test: Thrombin-dependent VEGF-A production in A549 cells (ELISA); assay type: cell-based, human; conditions: A549, 18 hours thrombin treatment
Procedure: as §1
Because the i3-based P1pal-7 pepducin had similar efficacy as Avastin in suppressing lung tumor growth of A549 xenografts, VEGF-A production was measured in the A549 tumor cells after 18 hours thrombin treatment. […] Unlike in ovarian cancer, no increase was found in PAR1-mediated IL-8 production in A549 cells, consistent with the observed lack of efficacy of CXCR1/2 pepducins in the A549 xenograft models. These xenograft data provide support for the role of a novel PAR1-ERK1/2-VEGF paracrine pathway that is an effective therapeutic target in the A549 adenocarcinoma lung cancer model.

[1] = Pharmacokinetics of PAR1 pepducins in CF-1 mice, plasma LC/MS/MS; assay type: in vivo, mouse; parameters: Peak plasma level: unit not given here; conditions: 10 mg/kg s.c.
Procedure: FIG. 14 illustrates pharmacokinetics of PAR1 pepducins. (A): CF-1 mice were injected subcutaneously with P1pal-7 (3 mg/kg, open circles), P1pal-7 (10 mg/kg, closed circles), P1pal-10S (10 mg/kg, gray circles), or P1pal-i1-11 (10 mg/kg, open squares) in 20% dimethyl sulfoxide and blood was collected at indicated time points (n=3). Pepducin levels in plasma were quantified with LC/MS/MS. (B): Daily (D1 to D6) plasma levels of P1pal-7 after subcutaneous injection of 10 mg/kg P1pal-7 were measured at 1 hour (open circles) and 24 hours (open squares).
Pharmacokinetics of plasma levels of P1pal-7, P1pal-10S, and P1pal-i1-11 at 30 minutes, and at 1, 2, 4, 6, 8, and 16 hours was measured by LC/MS/MS to determine steady-state pepducin drug levels and the rate of elimination from mice. Subcutaneous injections of P1pal-7 (3 mg/kg or 10 mg/kg) into wild-type CF-1 mice (25 to 30 g) was followed by blood collection at various time points from the vena cava. […] Residual P1pal-7 levels were 10 nmol/L at the 16-hour time point. After the 4-hour plateau, the elimination rate was linear from 4 to 16 hours. The peak plasma level of 3 mg/kg P1pal-7 reached 0.6 μmol/L at 2 hours and elimination was linear between 2 hours and 16 hours. P1pal-10S (10 mg/kg) gave similar peak plasma level of 1.0 μmol/L as P1pal-7 (10 mg/kg) at 1 hour.
Lastly, the peak plasma level of P1pal-7 (10 mg/kg) was measured before and 1 hour after once-daily subcutaneous injection over 6 days to determine whether the peak plasma levels were consistent on daily administration.

PAR2 = PAR2 (Mus musculus, UniProt P55086); test: λ-carrageenan/kaolin-induced mouse paw edema and inflammation (PAR2 pepducin); assay type: in vivo; parameters: from tissue; host or cells: living C57BL/6 mice, hindpaw; conditions: 10 mg/kg s.c.
Chain of PAR2 (P55086 26-399): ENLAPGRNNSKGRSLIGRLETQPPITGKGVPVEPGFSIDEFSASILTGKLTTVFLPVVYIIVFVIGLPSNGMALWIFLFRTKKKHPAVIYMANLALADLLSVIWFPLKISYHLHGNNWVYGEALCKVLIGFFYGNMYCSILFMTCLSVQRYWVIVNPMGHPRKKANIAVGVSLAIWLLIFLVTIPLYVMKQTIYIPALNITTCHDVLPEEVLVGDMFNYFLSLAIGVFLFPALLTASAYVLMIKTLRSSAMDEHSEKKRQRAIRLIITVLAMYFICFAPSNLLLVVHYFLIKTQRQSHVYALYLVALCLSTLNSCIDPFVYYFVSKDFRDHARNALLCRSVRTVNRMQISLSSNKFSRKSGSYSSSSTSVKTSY

PAR4 = molecular target: T1, PAR4 (Homo sapiens, UniProt Q96RI0); test: Human neutrophil chemotaxis to AYPGKF; assay type: cell-based; parameters: endogenous in cells; host or cells: human peripheral blood neutrophils; conditions: 100 μM AYPGKF
T1 sequence (Q96RI0 18-385): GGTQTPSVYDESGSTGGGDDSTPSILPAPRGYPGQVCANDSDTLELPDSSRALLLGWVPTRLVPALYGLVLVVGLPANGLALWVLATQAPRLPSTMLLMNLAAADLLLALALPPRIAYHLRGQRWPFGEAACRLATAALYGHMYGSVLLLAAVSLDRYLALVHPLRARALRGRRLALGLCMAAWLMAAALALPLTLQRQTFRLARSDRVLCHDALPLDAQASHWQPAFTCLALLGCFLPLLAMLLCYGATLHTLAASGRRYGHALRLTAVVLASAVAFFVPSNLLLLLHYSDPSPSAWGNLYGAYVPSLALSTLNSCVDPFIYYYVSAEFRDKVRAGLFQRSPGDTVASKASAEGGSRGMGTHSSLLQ
Procedure: (A) Human neutrophils (n=4 normal volunteers) were analyzed for surface expression of human PAR1, PAR2, and PAR4 by flow cytometry with PAR-specific antibodies. […] Chemotaxis index is the ratio of directed versus random migration over 30 min through a 5-μm pore filter.
P2pal-18S had no effect on PAR1-dependent platelet aggregation (FIG. 5A). Neither P2pal-18S nor P2pal-14GQ caused membrane disruption or apoptosis as assessed by propidium iodide uptake in SW620 cells with up to 30 μM concentrations of pepducin (FIG. 5B).

| Compound | Early tumor growth blockade (A549 xenografts; by day 20) | Inhibition of tumor progression/growth (final tumor volume vs vehicle) (A549 xenografts; monotherapy, nude mice) | Effect on thrombin-dependent VEGF-A production (VEGF-A production) | Clearance / plasma half-life in words [1] | Peak plasma level ([1]; between 0.5 and 8 hours) | Effect on increase in myeloperoxidase activity in hindpaw tissue (PAR2; 7 h after λ-carrageenan/kaolin, WT mice) | Protection against leukocytic infiltrates in the dermis of the footpads (PAR2; 7 h post λ-carrageenan/kaolin) | Effect on swelling in PAR2-deficient mice (PAR2; PAR2-deficient mice) | Decrease in λ-carrageenan/kaolin-induced edema (PAR2; WT C57BL/6 mice) | Effect on paw edema in mast cell-deficient mice (PAR2; mast cell-deficient mice, λ-carrageenan/kaolin) | Antagonist activity, neutrophil chemotaxis, PAR4 (PAR4) |
| --- | --- | --- | --- | --- | --- | --- | --- | --- | --- | --- | --- |
| CCCCCCCCCCCCCCCC(=O)N[C@H](C(=O)N[C@@H](CC(C)C)C(=O)N[C@@H](CCCCN)C(=O)N[C@@H](CCSC)C(=O)N[C@@H](CCCCN)C(=O)N[C@H](C(=O)N[C@@H](CCCCN)C(=O)N[C@@H](CCCCN)C(=O)N1CCC[C@H]1C(=O)N[C@@H](C)C(=O)N[C@H](C(N)=O)C(C)C)C(C)C)[C@@H](C)CC [P1pal-i1-11] (Palmitoyl-ILKMKVKKPAV-NH2) | significant blockade of tumor growth | did not inhibit the long-term growth | did not inhibit | sustained plasma half-life | 5.0 |  |  |  |  |  |  |
| CCCCCCCCCCCCCCCC(=O)N[C@@H](CCCNC(=N)N)C(=O)N[C@@H](CO)C(=O)N[C@@H](CO)C(=O)N[C@@H](C)C(=O)N[C@@H](CCSC)C(=O)N[C@@H](CC(=O)O)C(=O)N[C@@H](CCC(=O)O)C(=O)N[C@@H](CC(N)=O)C(=O)N[C@@H](CO)C(=O)N[C@@H](CCC(=O)O)C(=O)N[C@@H](CCCCN)C(=O)N[C@@H](CCCCN)C(=O)N[C@@H](CCCNC(=N)N)C(=O)N[C@@H](CCCCN)C(=O)N[C@@H](CO)C(=O)N[C@@H](C)C(=O)N[C@H](C(=O)N[C@@H](CCCCN)C(N)=O)[C@@H](C)CC [P2pal-18S] |  |  |  |  |  | blocked | 60% | did not further reduce swelling | 50% | could not be further reduced | no antagonist activity |

— patent US10913781B2, “Pepducin design and use” (Tufts Medical Center, Inc., priority 2011, dated 2021)
